SMILES strings stand for the structures.

The subject of this assay is migraine and tension headaches. In words: treatment of pain from migraine and tension headaches with Q-10 (oral capsules vs nasal formulation). The assay is classed as in vivo. Conditions: oral administration of from 600 to 800 mg of Q-10 in the form of capsules. The text has this:
The spray according to the invention is preferably an oral or nasal spray, so that the administration of ubiquinone Qn or ubiquinone Qn precursors can be effected on an inhalative or intranasal route. The spray according to the invention is useful, in particular, for the treatment of pain conditions as encountered in migraine and neuropathy, in neural disorders, such as depressions, psychoses, lack of concentration, and in neurodegenerative diseases, such as Alzheimer's, Parkinson's, Huntington's, multiple sclerosis and cerebral paresis. The application as an oral or nasal spray seems to accelerate the transport of ubiquinone Qn or its precursors through the blood-brain barrier. […] In principle, however, doses of as high as 1000 mg can be employed.

As to `COC1=C(OC)C(=O)C(C/C=C(\C)CC/C=C(\C)CC/C=C(\C)CC/C=C(\C)CC/C=C(\C)CC/C=C(\C)CC/C=C(\C)CC/C=C(\C)CC/C=C(\C)CCC=C(C)C)=C(C)C1=O` [Q-10, 2,3-dimethoxy-5-methyl-6-deca-prenyl-1,4-benzoquinone], the effect on migraine result is given as “virtually no effect”.
